Measured values as given in patent US7524853B2 (Solvay Pharmaceuticals B.V., priority 2003, dated 2009).

Legend:
Format in all cases: cell-based
[1] = biological target: T1, 17β-hydroxysteroid dehydrogenase type 1 (17β-HSD type 1) (Homo sapiens, UniProt P14061); assay: Inhibition of 17β-HSD type 1 in MCF-7 cells stably expressing the isoenzyme (tritium labeled estrone conversion, HPLC); details: MCF7, MCF-7 cells expressing 17β-HSD type 1, 2 nM tritium labeled estrone; for inhibition at 1 µM: 1 μM test compound, read-out: % Inhibition HSD1 1 μM; for inhibition at 10 µM: 10 μM test compound, read-out: % Inhibition HSD1 10 μM
T1 construct: expressed in transfected cells; host or cells: MCF-7
T1 sequence (P14061 1-328): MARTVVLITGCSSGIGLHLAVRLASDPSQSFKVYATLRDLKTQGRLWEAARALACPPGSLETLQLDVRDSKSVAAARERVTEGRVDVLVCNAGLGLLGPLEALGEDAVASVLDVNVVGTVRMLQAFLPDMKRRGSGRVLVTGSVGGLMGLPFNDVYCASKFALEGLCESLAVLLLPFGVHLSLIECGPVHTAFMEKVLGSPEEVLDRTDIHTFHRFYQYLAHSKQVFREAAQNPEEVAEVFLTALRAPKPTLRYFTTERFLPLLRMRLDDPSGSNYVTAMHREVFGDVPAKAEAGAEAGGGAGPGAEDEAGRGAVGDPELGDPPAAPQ
How it was run: (§1)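 Cells: stable MCF-7 transfectants per isoenzyme. Step one, add compound (two concentrations) plus 2 nM labelled substrate to growth medium. Step two, remove medium at a set time and stop with trichloroacetic acid. Step three, quantify conversion by HPLC with flow scintillation.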

[2] = biological target: T2, 17β-hydroxysteroid dehydrogenase type 2 (17β-HSD type 2) (Homo sapiens, UniProt P37059); assay: Inhibition of 17β-HSD type 2 in MCF-7 cells stably expressing the isoenzyme (tritium labeled estradiol conversion, HPLC); details: MCF7, MCF-7 cells expressing 17β-HSD type 2, 2 nM tritium labeled estradiol; for inhibition at 1 µM: 1 μM test compound, read-out: % Inhibition HSD2 1 μM; for inhibition at 10 µM: 10 μM test compound, read-out: % Inhibition HSD2 10 μM
T2 construct: expressed in transfected cells; host or cells: MCF-7
T2 sequence (P37059 1-387): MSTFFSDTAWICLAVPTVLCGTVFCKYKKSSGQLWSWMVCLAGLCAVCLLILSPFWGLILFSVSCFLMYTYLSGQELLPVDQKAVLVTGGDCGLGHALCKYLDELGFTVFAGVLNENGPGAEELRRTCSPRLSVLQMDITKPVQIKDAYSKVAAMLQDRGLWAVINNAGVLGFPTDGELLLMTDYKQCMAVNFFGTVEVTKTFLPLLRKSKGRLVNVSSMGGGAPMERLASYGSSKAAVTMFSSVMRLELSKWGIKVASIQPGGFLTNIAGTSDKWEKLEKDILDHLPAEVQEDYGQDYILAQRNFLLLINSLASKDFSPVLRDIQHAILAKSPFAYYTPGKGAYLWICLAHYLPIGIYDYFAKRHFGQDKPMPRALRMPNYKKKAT
How it was run: as §1

[3] = biological target: T3, 17β-hydroxysteroid dehydrogenase type 3 (17β-HSD type 3) (Homo sapiens, UniProt P37058); assay: Inhibition of 17β-HSD type 3 in MCF-7 cells stably expressing the isoenzyme (tritium labeled androstenedione conversion, HPLC); details: MCF7, MCF-7 cells expressing 17β-HSD type 3, 2 nM tritium labeled androstenedione; for inhibition at 1 µM: 1 μM test compound, read-out: % Inhibition HSD3 1 μM; for inhibition at 10 µM: 10 μM test compound, read-out: % Inhibition HSD3 10 μM
T3 construct: expressed in transfected cells; host or cells: MCF-7
T3 sequence (P37058 1-310): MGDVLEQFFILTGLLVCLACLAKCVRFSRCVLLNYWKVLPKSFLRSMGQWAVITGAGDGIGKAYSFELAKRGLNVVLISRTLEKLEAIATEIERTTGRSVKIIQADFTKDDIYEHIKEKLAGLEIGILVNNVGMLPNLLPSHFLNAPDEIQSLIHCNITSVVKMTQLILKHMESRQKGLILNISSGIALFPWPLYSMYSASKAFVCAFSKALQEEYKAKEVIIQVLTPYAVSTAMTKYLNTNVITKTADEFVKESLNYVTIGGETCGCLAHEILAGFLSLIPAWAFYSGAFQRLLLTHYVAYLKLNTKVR
How it was run: as §1

SMILES	inhibition at 1 µM [1]	inhibition at 10 µM [1]	inhibition at 1 µM [2]	inhibition at 10 µM [2]	inhibition at 1 µM [3]	inhibition at 10 µM [3]
CCCCn1c(-c2cc(OC)c(OC)c(OC)c2)nc2sc3c(c2c1=O)CCCC3 [No. 85, 3-Butyl-2-(3,4,5-trimethoxyphenyl)-5,6,7,8-tetrahydro-3H-benzo[4,5]thieno[2,3-d]pyrimidin-4-one]	24.1%	40.1%	21.5%	25.4%	-2.2%	24.4%
CCCCn1c(-c2cc(OC)c(OC)c(OC)c2)nc2sc3c(c2c1=O)CCCC3=O [No. 86, 3-Butyl-2-(3,4,5-trimethoxyphenyl)-6,7-dihydro-3H,5H-benzo[4,5]thieno[2,3-d]pyrimidine-4,8-dione]	23.6%	46.6%	18.9%	19.5%	11.3%	45.7%
CCCCn1c(-c2cc(OC)c(OC)c(OC)c2)nc2sc3c(c2c1=O)CCC(Br)C3=O (stereo not drawn) [No. 87, 7-Bromo-3-butyl-2-(3,4,5-trimethoxyphenyl)-6,7-dihydro-3H,5H-benzo[4,5]thieno[2,3-d]pyrimidine-4,8-dione]	26.8%	67.4%	24.6%	23.4%	13%	31.9%
CCCCn1c(-c2cc(OC)c(OC)c(OC)c2)nc2sc3c(c2c1=O)CCC(Br)(Br)C3=O [No. 88, 3-Butyl-7,7-dibromo-2-(3,4,5-trimethoxyphenyl)-6,7-dihydro-3H,5H-benzo[4,5]thieno[2,3-d]pyrimidine-4,8-dione]	25%	40.5%	25.9%	29.9%	20.4%	23.3%
CCCCn1c(-c2cc(OC)c(OC)c(OC)c2)nc2sc3c(O)cccc3c2c1=O [No. 89, 3-Butyl-8-hydroxy-2-(3,4,5-trimethoxyphenyl)-3H-benzo[4,5]thieno[2,3-d]pyrimidin-4-one]	37.7%	84.7%	31.2%	40.1%	30.9%	80.1%
CCCCn1c(-c2cc(OC)c(OC)c(OC)c2)nc2sc3c(O)c(Br)ccc3c2c1=O [No. 90, 7-Bromo-3-butyl-8-hydroxy-2-(3,4,5-trimethoxyphenyl)-3H-benzo[4,5]thieno[2,3-d]pyrimidin-4-one]	15.5%	24.7%	16.1%	22%	4%	11.3%
COc1cc(-c2nc3sc4c(OC)cccc4c3c(=O)n2Cc2ccccc2)c(Br)c(OC)c1OC [No. 91, 3-Benzyl-8-methoxy-2-(2-bromo-3,4,5-trimethoxyphenyl)-3H-benzo[4,5]thieno[2,3-d]pyrimidin-4-one]	21.5%	26.1%	28.2%	33.7%	3.7%	18.1%
O=c1c2c(nc(-c3ccccc3)n1Cc1ccccc1)sc1c(O)c(Br)ccc12 [No. 92, 3-Benzyl-7-bromo-8-hydroxy-2-phenyl-3H-benzo[4,5]thieno[2,3-d]pyrimidin-4-one]	22%	23.3%	42.7%	60.9%	4.7%	24.3%
CC(=O)Oc1c(Br)ccc2c1sc1nc(-c3ccccc3)n(Cc3ccccc3)c(=O)c12 [No. 93, Acetic acid 3-benzyl-7-bromo-4-oxo-2-phenyl-3,4-dihydro-benzo[4,5]thieno[2,3-d]pyrimidin-8-yl ester]	13.3%	11.7%	43.2%	57.7%	19.4%	26.1%
CCCc1nc2sc3c(c2c(=O)n1Cc1ccccc1OC)CCCC3 [No. 94, 3-(2-Methoxybenzyl)-2-propyl-5,6,7,8-tetrahydro-3H-benzo[4,5]thieno[2,3-d]pyrimidin-4-one]	16.5%	27.2%	25.7%	31.5%	2.2%	21.1%

The remaining lines, values ahead:

inhibition at 1 µM [1]	inhibition at 10 µM [1]	inhibition at 1 µM [2]	inhibition at 10 µM [2]	inhibition at 1 µM [3]	inhibition at 10 µM [3]	SMILES
17%	59.6%	6.9%	31.2%	9.9%	62.4%	CCCc1nc2sc3c(c2c(=O)n1Cc1ccccc1OC)CCCC3=O [No. 95, 3-(2-Methoxybenzyl)-2-propyl-6,7-dihydro-3H,5H-benzo[4,5]thieno[2,3-d]pyrimidine-4,8-dione]
19.5%	65.1%	17.2%	21.9%	13%	37.5%	CCCc1nc2sc3c(c2c(=O)n1Cc1cc(Br)ccc1OC)CCC(Br)C3=O (stereo not drawn) [No. 96]
18.1%	29.4%	25.2%	44.6%	-5.9%	11.5%	CCCc1nc2sc3c(c2c(=O)n1Cc1cc(Br)ccc1OC)CCC(Br)(Br)C3=O [No. 97, 7,7-Dibromo-3-(5-bromo-2-methoxybenzyl)-2-propyl-6,7-dihydro-3H,5H-benzo[4,5]thieno[2,3-d]pyrimidine-4,8-dione]
28.2%	69.1%	46.6%	82.8%	16.6%	63.3%	CCCc1nc2sc3c(O)cccc3c2c(=O)n1Cc1cc(Br)ccc1OC [No. 98]
21.8%	64.5%	46.1%	85.4%	15.9%	68.9%	CCCc1nc2sc3c(OC(C)=O)cccc3c2c(=O)n1Cc1cc(Br)ccc1OC [No. 99]
23.5%	66.7%	28.8%	81.3%	-0.8%	7.7%	CCCc1nc2sc3c(O)cccc3c2c(=O)n1Cc1cc(Br)ccc1O [No. 100, 3-(5-Bromo-2-hydroxybenzyl)-8-hydroxy-2-propyl-3H-benzo[4,5]thieno[2,3-d]pyrimidin-4-one]
14.1%	26%	18%	30%	5.7%	7.8%	CCCc1nc2sc3c(c2c(=O)n1Cc1ccco1)CCCC3 [No. 101, 3-(Furan-2-ylmethyl)-2-propyl-5,6,7,8-tetrahydro-3H-benzo[4,5]thieno[2,3-d]pyrimidin-4-one]
14.8%	57.5%	13.6%	18.6%	6.7%	51.2%	CCCc1nc2sc3c(c2c(=O)n1Cc1ccco1)CCCC3=O [No. 102, 3-(Furan-2-ylmethyl)-2-propyl-6,7-dihydro-3H,5H-benzo[4,5]thieno[2,3-d]pyrimidine-4,8-dione]
